In patent US11903944B1, “Experimental model using pazopanib-induced cardiotoxicity” (KING FAISAL UNIVERSITY, priority 2023, dated 2024):

Tests used:
Assay type in all cases: in vivo, Male Sprague Dawley rats
[1] = Blood pressure recording, noninvasive tail-cuff system, experimental animal model for hypertension; settings: 30 mg/kg twice daily orally for 14 days; compared to normal animals
Procedure: (§1) This experimental protocol was permitted by the Institutional Animal Care and Use Committee of King Faisal University. All the experiments were executed in harmony with the relevant procedures and regulations of the Ethical Conduct for the Use of Animals in Research at King Faisal University. Male Sprague Dawley rats weighing 150-200 g were purchased and accommodated in polypropylene cages and upheld at 27±2° C. under a 12 h light/dark sequence. Rats were kept and observed for 1 week in the animal house. The animals were fed with standard rat feed and allowed water ad libitum.
(§2) Animals were distributed into 5 groups, each group containing 6 rats (n=6). Group 1 is the control group in which animals were injected with normal saline intraperitoneally (IP). Group 2: The animals were treated with Pazopanib 30 mg/kg twice daily orally for 14 days to induce hypertension. This group represents the “Experimental animal model for hypertension.” Group 3: The animals were treated with Pazopanib 100 mg/kg orally as a single dose. This group represents the “Experimental animal model for arrhythmia.” Group 4: The animals were treated with Pazopanib 300 mg/kg/day orally for 21 days. This group represents the “Experimental animal model for Cardiac toxicity (oral)” Group 5: The animals were treated with Pazopanib 21 mg/kg/day intraperitoneally (IP) for 30 days. This group represents the “Experimental animal model for Cardiac toxicity (IP)”
Blood pressure measurements were performed using a noninvasive computerized tail-cuff system from Emka Technologies' Systems (Paris, France), which involved placing a cuff on the animal's tail to occlude the blood flow. The pressure was raised and then slowly released. The cuff pressure when the pulse signal reappears is intended as the systolic pressure. […]
(§3) Data were expressed as mean±standard error of the mean (SEM) for six animals (n=6) in each group. Statistically significant differences between the groups were determined using one-way ANOVA followed by Tukey's test as a post-hoc analysis. […]

[2] = Electrocardiogram (ECG) recording for arrhythmia identification, experimental animal model for arrhythmia; settings: 100 mg/kg orally single dose, after 3 hours
Procedure: as §1, §2
At the end of the experiments, urethane-anaesthetized rats (1.5 g/kg) were placed in a prone position on a board, and an ECG was continuously recorded using noninvasive computerized ECG apparatus from Kent Scientific (Torrington, CT, USA). Heart rate, ST segment, P wave, QT, P-R and R-R intervals, and QRS complex were calculated from ECG recordings electronically.
(§4) Data were expressed as mean±standard error of the mean (SEM) for six animals (n=6) in each group. Statistically significant differences between the groups were determined using one-way ANOVA followed by Tukey's test as a post-hoc analysis. In all cases, probability values of p<0.05 were taken as statistically significant.

[3] = Cardiac toxicity identification: serum cardiac marker levels by ELISA; settings: compared with normal rats, p<0.05
Procedure: as §1
Animals were distributed into 5 groups, each group containing 6 rats (n=6). Group 1 is the control group in which animals were injected with normal saline intraperitoneally (IP). Group 2: The animals were treated with Pazopanib 30 mg/kg twice daily orally for 14 days to induce hypertension. This group represents the “Experimental animal model for hypertension.” Group 3: The animals were treated with Pazopanib 100 mg/kg orally as a single dose. This group represents the “Experimental animal model for arrhythmia.” Group 4: The animals were treated with Pazopanib 300 mg/kg/day orally for 21 days. […] This group represents the “Experimental animal model for Cardiac toxicity (IP)”
Blood samples were collected, and centrifuged (10 min/4000 rpm) to separate serum which was then stored in a −80° C. for biochemical analysis. Thereafter, the anaesthetized animals were sacrificed, and the hearts of different investigational groups were separated, and stored in a −80° C. for subsequent biochemical parameters determination.
ELISA kits, following the manufacturer's instructions, were used to measure serum cardiac marker levels of CPK, CK-MB, cTnT, cTnI and LDH.
as §4

[4] = tested on: Toll-Like Receptors 4 (TLR4) gene expressions; test: TLR4 gene expression in cardiac tissue by real-time quantitative PCR
Procedure: as §1
Animals were distributed into 5 groups, each group containing 6 rats (n=6). Group 1 is the control group in which animals were injected with normal saline intraperitoneally (IP). Group 2: The animals were treated with Pazopanib 30 mg/kg twice daily orally for 14 days to induce hypertension. This group represents the “Experimental animal model for hypertension.” Group 3: The animals were treated with Pazopanib 100 mg/kg orally as a single dose. […] This group represents the “Experimental animal model for Cardiac toxicity (IP)”
Blood samples were collected, and centrifuged (10 min/4000 rpm) to separate serum which was then stored in a −80° C. for biochemical analysis. […]
Total RNA was extracted from the cardiac tissue samples according to the Trizol kit instructions. […] The TLR4 primer (5′-[…]-3′ (SEQ ID NO: 1), 3′-[…]-5′ (SEQ ID NO: 2)), TLR2 (5′-[…]-3′ (SEQ ID NO: 3), 3′-[…]-5′ (SEQ ID NO: 4)), MYD88 (5′-[…]-3′ (SEQ ID NO: 5), 3′-[…]-5′ (SEQ ID NO: 6)) were used to detect and quantify related genes in the cDNA using Real-time quantitative PCR. In a 25 μL reaction volume, PCR was performed as follows: initial denaturation for 4 min at 94° C., followed by denaturation for 30 s at 94° C., annealing for 30 s at 62° C., and extension for 2 min at 72° C. for 35 cycles, and final extension for 10 min at 72° C. qPCR was applied using SYBR ExScript RT-PCR kit, and quantification examinations were accomplished via an Opticon-2 Real-time PCR reactor (MJ Research, Capital Court, Reno, NV, USA). qPCR results were obtained using Step PE Applied Biosystems (Waltham, MA, USA) software. Relative gene expression data were calculated using the (2-ΔΔCq2) method and presented as a fold change. Target gene expressions were assessed and related to the internal reference β-actin gene using the primer (5′-ATCCTGCGTCTGGACCTGG-3′ (SEQ ID NO: 7), 5′-[…]-3′ (SEQ ID NO: 8)), and the results were presented in the figures as relative expressions.
as §3

[5] = 30 mg/kg/day intraperitoneally (IP) for 21 days
[6] = 300 mg/kg/day orally for 21 days

Cc1ccc(Nc2nccc(N(C)c3ccc4c(C)n(C)nc4c3)n2)cc1S(N)(=O)=O [Pazopanib]
augmented: serum cardiac troponin I (cTnI) [3, 5] | serum cardiac troponin T (cTnT) [3, 5] | serum creatine kinase-myocardial bound (CK-MB) [3, 5] | serum creatine phosphokinase (CPK) [3, 5] | serum lactate dehydrogenase (LDH) [3, 5] | serum cardiac troponin I (cTnI) [3, 6] | serum cardiac troponin T (cTnT) [3, 6] | serum creatine kinase-myocardial bound (CK-MB) [3, 6] | serum creatine phosphokinase (CPK) [3, 6] | serum lactate dehydrogenase (LDH) [3, 6]
elevated: diastolic blood pressure [1] | mean blood pressure [1] | systolic blood pressure [1]
shortening: P-R interval [2] | R-R interval [2] | p wave duration [2]
prolongation: QRS interval (QRS complex duration) ([2]; compared to control, p<0.05) | QT interval ([2]; compared to control, p<0.05)
significantly increased: TLR4 gene expression ([4]; arrhythmia model: 100 mg/kg orally as a single dose) | TLR4 gene expression ([4]; cardiotoxicity model: 30 mg/kg/day intraperitoneally (IP) for 30 days) | TLR4 gene expression ([4]; cardiotoxicity model: 300 mg/kg/day orally for 30 days) | TLR4 gene expression ([4]; hypertension model: 30 mg/kg twice daily orally for 14 days)
elevation: ST segment amplitude ([2]; compared to control, p<0.05)
